Patent US12636298B2, “Composition with L-theanine and fructooligosaccharides for human memory enhancement” (HARKE Pharma GmbH, priority 2019, dated 2026)

What was measured:
mice [1] = assay: Water maze test (MT-01 vs FOS and L-theanine); type: in vivo; settings: for Error count during testing phase: MT-01 both, control 4.11
Protocol: Furthermore, to test the hypothesis that administration of M. officinalis FOS and L-theanine in a ratio of about 2:1 L-theanine:FOS synergistically enhance mice memory, we have performed a step-down passive avoidance test and a water maze test. This was employed to assess the effect of M. officinalis FOS and L-theanine individually on mice memory compared to their collective effect when administrated in combination in a ratio of about 2:1 L-theanine:FOS (MT-01) (FIG. 1). Maze test was performed to further confirm the hypothesis. […] We analysed the synergy between FOS and L-theanine in the formulation by calculating the coefficient of drug interaction (CDI), as shown in Table 1.

mice [2] = assay: Step-down passive avoidance test (MT-01 vs FOS and L-theanine); type: in vivo; settings: for Error count during testing phase: MT-01 both, control 2.33; for latency during the retention phase (FIG. 1c): comparison between groups
Text: Furthermore, to test the hypothesis that administration of M. officinalis FOS and L-theanine in a ratio of about 2:1 L-theanine:FOS synergistically enhance mice memory, we have performed a step-down passive avoidance test and a water maze test. This was employed to assess the effect of M. officinalis FOS and L-theanine individually on mice memory compared to their collective effect when administrated in combination in a ratio of about 2:1 L-theanine:FOS (MT-01) (FIG. 1).
We analysed the synergy between FOS and L-theanine in the formulation by calculating the coefficient of drug interaction (CDI), as shown in Table 1.

KumMing (KM) mice = assay: Passive avoidance test (embodiment 1); type: in vivo, mouse
Text: The Passive Avoidance Test (Solomon and Wynne, 1954; Solomon and Turner, 1960) is a fear-aggravated task employed to evaluate learning and memory in rodent models. In this test, subjects learn to avoid an environment in which an aversive stimulus (such as a foot-shock) was previously delivered. The test chamber is divided into a light compartment and a dark compartment, with a gate between the two. Animals are allowed to explore both compartments on the first day. On the following day, they are given a mild foot shock in one of the compartments. Animals will learn to associate certain properties of the chamber with the foot shock. In order to test their learning and memory, the mice are then placed back in the compartment where no shock was delivered. Mice with normal learning and memory will avoid entering the chamber where they had previously been exposed to the shock. This is measured by recording the latency to cross through the gate between the compartments. “Learning” is the period where mice were trained in this test (Table 1 and 2). Mice were tested at 24 or 48 hours after learning and the results were recorded (“Test column” in Table 1 and 2). “Fade” indicates re-testing of mice 5 days after learning (“Fade column” Table 1 and 2). Error percentage indicates the percentage of mice that have been shocked during the test. Our research was undertaken with KumMing (KM) mice (Dai et al. 2012; Ma et al. 2013). In each test, 48 KM mice were separated into 4 groups, 12 mice per group. A negative-control group was also included in the test and mock treated. […] We subsequently, tested different doses of embodiment 1, 0.1, 0.2 or 0.3 g/kg of mouse body weight (bw) of embodiment 1, consisting of a combination of fructooligoscharide and L-theanine, in the passive avoidance test.

[3] = Low dose: L-theanine 66, FOS 33 mg/kg·bw
[4] = Medium dose: L-theanine 134, FOS 66 mg/kg·bw
[5] = doses g/kg·bw: Embodiment 1 0.01, L-Theanine 0.0067, Fructooligosaccharide 0.0033, 24 or 48 hours after learning
[6] = doses g/kg·bw: Embodiment 1 0.01, L-Theanine 0.0067, Fructooligosaccharide 0.0033, 5 days after learning
[7] = doses g/kg·bw: Embodiment 1 0.01, L-Theanine 0.0067, Fructooligosaccharide 0.0033, training period

CCNC(=O)CC[C@H](N)C(=O)O [L-theanine]
Error count during testing phase (mice [1]; High dose: L-theanine 200, FOS 100 mg/kg·bw): 2.41
Error count during testing phase (mice [1]; [3]): 2.45
Error count during testing phase (mice [1]; [4]): 2.95
time to escape during the test (FIG. 1a) (mice [1]; all doses, compared to control group, p<0.05): significantly (p<0.05) less time to escape
escape time during test (mice [1]; medium and high dose, between MT-01, L-theanine and FOS): no significant differences
Error count during testing phase (mice [2]; [3]): 0.83
Error count during testing phase (mice [2]; [4]): 1.00
latency during the retention phase (FIG. 1c) (mice [2]; high dose): higher latency
latency during the retention phase (FIG. 1c) (mice [2]; low dose): neither the FOS-only nor L-theanine-only group show any significant difference
impact on rodent memory in the mouse passive avoidance test (KumMing (KM) mice; Table 1 doses, vs control): neither fructooligoscharide nor L-theanine alone have a positive impact on rodent memory
Test Error Count (KumMing (KM) mice; [5]): 1.22 ± 1.14
Test Incubation period (KumMing (KM) mice; [5]): 232.13 ± 70.71 s
Fade Error Count (KumMing (KM) mice; [6]): 1.40 ± 1.07
Fade Incubation period (KumMing (KM) mice; [6]): 267.80 ± 51.03 s
Learning Error Count (KumMing (KM) mice; [7]): 3.90 ± 1.52
Learning Incubation period (KumMing (KM) mice; [7]): 48.30 ± 10.71 s
